Data taken from paper PMC8821706, “Design and synthesis of novel nitrothiazolacetamide conjugated to different thioquinazolinone derivatives as anti-urease agents” (Scientific Reports, 2022).
Values after ≈ are worked out from the molar mass of the structure shown. Like-named read-outs stand apart in the source and are kept apart here.

Columns and labels:
urease [1] = conditions: cited from earlier work
urease [2] = biological target: T1, urease (Canavalia ensiformis, UniProt P07374); test: biochemical; format: biochemical, jack bean; conditions: for improvement in potency compared to thiourea: ratio of urease IC50 versus thiourea (positive control)
Description: In vitro anti-urease activity of synthesized compounds, 8a-n were performed based on the […] method against urease compared with thiourea as the reference inhibitor.
Urease inhibition effects of the synthesized compounds were determined according to the previously reported procedure[47]–[49]. 100 μL of the synthesized compounds at different concentrations was added to 850 μL of urea as substrate and 15 μL urease (0.135 units dissolved in PBS, pH 7.4). After 30 min, to 100 μL of the incubated solution, 500 μL solution I (5.0 g phenol and 25.0 mg sodium nitroprusside in 500 mL water) was added followed by the addition of 500 μL of solution II (2.5 g sodium hydroxide, 4.2 mL sodium hypochlorite, and 5% chlorine in 500 mL water) which was further incubated at 37 °C for 30 min. The absorbance was determined by measuring indophenols at 625 nm. Thiourea was used as the standard inhibitor for urease. The IC50 values for all synthesized compounds were calculated using GraphPad Prism software (GraphPad Software, Inc., San Diego, CA).

C. neoformans (H99) = test: Anti-ureolytic activity, colorimetric microdilution in urea broth; format: cell-based; conditions: Cryptococcus neoformans, 72 h; 560 nm, after three days; read-out: IC50 (µg/ml) of C. neoformans (anti-ureolytic effect)
Description: (§1) The colorimetric microdilution technique using urea broth media (Merck, supplemented with glucose; pH = 6 for C. neoformans) was used to examine the urolytic activity of C. neoformans (H99), and clinical isolate of P.vulgaris treated with tested substances. Compounds in the concentration range of 1–512 μg/mL were exposed to ureolytic microorganisms, and the color of the medium was evaluated visually and spectroscopically at 560 nm after three days for C. neoformans and 24 h for P. vulgaris. The positive control, which included ureolytic bacteria but no drugs, changed color from yellow to dark pink or magenta. This shifts, allowing the determination of the inhibitory activity of compounds against urease activity of organisms even without a microtiter plate reader[57],[58].

[3] = system: clinical isolate of P.vulgaris; test: as above; format: cell-based; conditions: Proteus vulgaris; 560 nm, after 24 h; read-out: IC50 (µg/ml) of P. vulgaris (anti-ureolytic effect)
Description: as §1

[4] = system: clinical isolate of Proteus vulgaris; test: Antimicrobial activity, microbroth dilution (CLSI); format: cell-based; conditions: tested 1 to 512 μg/ml
Description: (§2) The antimicrobial activity of compounds against the microorganisms including C. neoformans (H99), and clinical isolate of P.vulgaris was assessed using the microbroth dilution method, as recommended by the Clinical and Laboratory Standards Institute (CLSI) (M07-A9 for bacteria; M27-A3 for yeasts). The compounds were diluted, and stock solutions of 20 mg/ml in DMSO were prepared. Mueller–Hinton Broth (HiMedia) and RPMI-1640 (Sigma) were prepared as recommended for antimicrobial susceptibility testing of bacterial and fungal strains, respectively. Two-fold dilutions were made in the range of 1–512 μg/ml for tested compounds. The microbroth dilution test was accomplished using a 96-well microtiter plate, containing growth control (yeast culture in broth media) and sterility control (broth media without fungal culture). The antimicrobial susceptibility test was accomplished by adding a cell suspension adjusted to the 0.5 McFarland standard (1–2 × 10^8 CFU/mL for bacterial strains; 1−5 × 10^6 cells/ml for yeast) to different concentrations of tested compounds. […] All experiments were performed in duplicates.

[5] = system: Cryptococcus neoformans (H99); test: Antimicrobial activity, microbroth dilution (CLSI); format: cell-based; conditions: tested 1 to 512 μg/ml
Description: as §2

urease [6] = biological target: T1, urease; test: Kinetic study of urease inhibition (Lineweaver–Burk); format: biochemical, jack bean
Description: The mechanism of urease inhibition was investigated by enzyme kinetics, following the similar procedure of the urease inhibition assay. Lineweaver–Burk graphics were used to estimate the type of inhibition.
The kinetic study for the inhibition of urease by compound 8h was carried out using four different concentrations of inhibitor. For the kinetic study of urease, compound 8h was used at the concentrations of 0, 1, 2, and 4 μM. The Lineweaver–Burk reciprocal plot was constructed by plotting 1/V against 1/[S] at variable concentrations of the substrate urea (3.12–100 mM). The inhibition constant Ki was calculated by the plot of slopes versus the corresponding concentrations of the compound 8h.

H. pylori = system: H. pylori; parameters: method as in PMID 10394014; conditions: cited from earlier work

T1 sequence (P07374 whole entry, looked up): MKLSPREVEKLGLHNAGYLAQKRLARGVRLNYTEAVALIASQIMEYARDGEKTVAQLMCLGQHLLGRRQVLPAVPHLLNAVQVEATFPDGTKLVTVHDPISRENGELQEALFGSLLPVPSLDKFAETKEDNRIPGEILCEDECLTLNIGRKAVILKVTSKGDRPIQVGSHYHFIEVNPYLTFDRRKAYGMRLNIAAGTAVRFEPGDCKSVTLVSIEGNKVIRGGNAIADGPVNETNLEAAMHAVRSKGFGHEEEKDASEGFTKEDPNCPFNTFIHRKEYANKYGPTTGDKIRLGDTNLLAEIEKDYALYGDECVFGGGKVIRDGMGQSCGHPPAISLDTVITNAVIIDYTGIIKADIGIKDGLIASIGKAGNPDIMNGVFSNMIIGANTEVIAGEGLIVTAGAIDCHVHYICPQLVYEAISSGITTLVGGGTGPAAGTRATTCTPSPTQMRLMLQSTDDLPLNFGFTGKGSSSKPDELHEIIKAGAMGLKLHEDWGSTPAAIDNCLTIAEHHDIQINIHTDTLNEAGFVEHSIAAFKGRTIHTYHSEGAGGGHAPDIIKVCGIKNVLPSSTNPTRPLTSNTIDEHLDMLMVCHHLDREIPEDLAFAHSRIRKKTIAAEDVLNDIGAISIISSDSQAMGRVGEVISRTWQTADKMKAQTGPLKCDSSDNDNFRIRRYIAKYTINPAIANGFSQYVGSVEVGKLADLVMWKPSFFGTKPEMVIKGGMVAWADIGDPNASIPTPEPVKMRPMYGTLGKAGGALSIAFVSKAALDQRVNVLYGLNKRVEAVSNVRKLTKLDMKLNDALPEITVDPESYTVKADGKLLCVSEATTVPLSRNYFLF

With `O=C(Cn1c(Cc2ccc(Cl)cc2)nc2ccccc2c1=O)N/N=C/c1ccco1` [A] as the compound, how does the “IC50 (urease)” value (urease [1]; 2,3-disubstituted quinazolin-4(3H)-ones, Fig. 1A) read?
The value was 1.55 ± 0.11 µg/mL (≈ 3.68 µM).

For `CCc1nc2ccccc2c(=O)n1CC(=O)NNC(=O)c1cc2cc(Br)ccc2oc1=O` [B], which “IC50 (urease)” value (urease [1]; quinazolinone-coumarin derivatives, Fig. 1B) is on record?
Its value is 1.26 ± 0.07 µg/mL (≈ 2.53 µM).

For `CCNc1nnc(Cn2c(Cc3ccc(F)cc3)nc3ccccc3c2=O)s1` [C], which “IC50 (urease)” value (urease [1]; quinazolin-4(3H)-ones, Fig. 1C) is on record?
Its value is 1.88 ± 0.17 µg/mL (≈ 4.75 µM).

For `O=C(CSc1nc2ccccc2c(=O)n1-c1ccccc1)Nc1ncc([N+](=O)[O-])s1` [Compound 8a, N-(5-nitrothiazol-2-yl)-2-((4-oxo-3-phenyl-3,4-dihydroquinazolin-2-yl)thio)acetamide], which IC50 (urease [2]) is on record?
The IC50 was 4.72 ± 0.26 µM.

What about the “improvement in potency compared to thiourea” value (urease [2]) of the same compound?
Its value is “around fivefold”.

With `O=C(CSc1nc2ccccc2c(=O)n1-c1ccc(Cl)cc1)Nc1ncc([N+](=O)[O-])s1` [Compound 8b, 2-((3-(4-chlorophenyl)-4-oxo-3,4-dihydroquinazolin-2-yl)thio)-N-(5-nitrothiazol-2-yl)acetamide] as the compound, how does the IC50 (urease [2]) read?
Its IC50 is 2.34 ± 0.19 µM.

Which results are given for `O=C(CSc1nc2ccccc2c(=O)n1-c1ccc(Br)cc1)Nc1ncc([N+](=O)[O-])s1` [Compound 8c, 2-((3-(4-bromophenyl)-4-oxo-3,4-dihydroquinazolin-2-yl)thio)-N-(5-nitrothiazol-2-yl)acetamide]?
IC50 (C. neoformans (H99)): 174 ± 4.9 µg/mL (≈ 335 µM); IC50 [3]: 383 ± 5.1 µg/mL (≈ 739 µM); MIC [4]: > 512 µg/mL; MIC [5]: > 512 µg/mL; IC50 (urease [2]): 2.22 ± 0.09 µM

With `COc1ccc(-n2c(SCC(=O)Nc3ncc([N+](=O)[O-])s3)nc3ccccc3c2=O)cc1` [Compound 8d, 2-((3-(4-methoxyphenyl)-4-oxo-3,4-dihydroquinazolin-2-yl)thio)-N-(5-nitrothiazol-2-yl)acetamide] as the compound, how does the IC50 (urease [2]) read?
Its IC50 is 2.78 ± 0.32 µM.

For `O=C(CSc1nc2ccccc2c(=O)n1Cc1ccccc1)Nc1ncc([N+](=O)[O-])s1` [Compound 8e, 2-((3-benzyl-4-oxo-3,4-dihydroquinazolin-2-yl)thio)-N-(5-nitrothiazol-2-yl)acetamide], which IC50 (urease [2]) is on record?
The IC50 was 3.83 ± 0.17 µM.

Which IC50 (urease [2]) does the source give for `Cc1ccc(Cn2c(SCC(=O)Nc3ncc([N+](=O)[O-])s3)nc3ccccc3c2=O)cc1` [Compound 8f, 2-((3-(4-methylbenzyl)-4-oxo-3,4-dihydroquinazolin-2-yl)thio)-N-(5-nitrothiazol-2-yl)acetamide] here?
Its IC50 is 3.5 ± 0.28 µM.

Which IC50 [3] does the source give for `O=C(CSc1nc2ccccc2c(=O)n1Cc1cccnc1)Nc1ncc([N+](=O)[O-])s1` [Compound 8g, N-(5-nitrothiazol-2-yl)-2-((4-oxo-3-(pyridin-3-ylmethyl)-3,4-dihydroquinazolin-2-yl)thio)acetamide] here?
Its IC50 is over 512 µg/mL.

What about the MIC [4] of the same compound?
The MIC was over 512 µg/mL.

What about the MIC [5] of the same compound?
The MIC was over 512 µg/mL.

What about the IC50 (urease [2]) of the same compound?
The IC50 was 2.5 ± 0.37 µM.

Which IC50 (C. neoformans (H99)) does the source give for `O=C(CSc1nc2ccccc2c(=O)n1CCc1ccccc1)Nc1ncc([N+](=O)[O-])s1` [Compound 8h, N-(5-nitrothiazol-2-yl)-2-((4-oxo-3-phenethyl-3,4-dihydroquinazolin-2-yl)thio)acetamide] here?
Its IC50 is 129 ± 5.3 µg/mL (≈ 277 µM).

And the IC50 [3]?
The IC50 was 172 ± 8.7 µg/mL (≈ 369 µM).

And the Ki (urease [6])?
Its Ki is 1.99 µM.

What about the “inhibition pattern against urease” value (urease [6]; Lineweaver–Burk plot) of the same compound?
The value was “uncompetitive”.

What about the MIC [4] of the same compound?
The MIC was over 512 µg/mL.

What about the MIC [5] of the same compound?
The MIC was over 512 µg/mL.

What about the IC50 (urease [2]) of the same compound?
Its IC50 is 2.22 ± 0.44 µM.

What about the “improvement in potency compared to thiourea” value (urease [2]) of the same compound?
Its value is “ten-fold”.

For `CCCn1c(SCC(=O)Nc2ncc([N+](=O)[O-])s2)nc2ccccc2c1=O` [Compound 8i, N-(5-nitrothiazol-2-yl)-2-((4-oxo-3-propyl-3,4-dihydroquinazolin-2-yl)thio)acetamide], which IC50 (urease [2]) is on record?
The IC50 was 4.26 ± 0.46 µM.

Which IC50 (urease [2]) does the source give for `CC(C)n1c(SCC(=O)Nc2ncc([N+](=O)[O-])s2)nc2ccccc2c1=O` [Compound 8j, 2-((3-isopropyl-4-oxo-3,4-dihydroquinazolin-2-yl)thio)-N-(5-nitrothiazol-2-yl)acetamide] here?
Its IC50 is 6.04 ± 0.57 µM.

With `CCCCn1c(SCC(=O)Nc2ncc([N+](=O)[O-])s2)nc2ccccc2c1=O` [Compound 8k, 2-((3-butyl-4-oxo-3,4-dihydroquinazolin-2-yl)thio)-N-(5-nitrothiazol-2-yl)acetamide] as the compound, how does the IC50 (urease [2]) read?
Its IC50 is 3.02 ± 0.12 µM.

For `CC(C)Cn1c(SCC(=O)Nc2ncc([N+](=O)[O-])s2)nc2ccccc2c1=O` [Compound 8l, 2-((3-isobutyl-4-oxo-3,4-dihydroquinazolin-2-yl)thio)-N-(5-nitrothiazol-2-yl)acetamide], which IC50 (urease [2]) is on record?
The IC50 was 8.43 ± 0.61 µM.

Which IC50 (urease [2]) does the source give for `C=CCn1c(SCC(=O)Nc2ncc([N+](=O)[O-])s2)nc2ccccc2c1=O` [Compound 8m, 2-((3-allyl-4-oxo-3,4-dihydroquinazolin-2-yl)thio)-N-(5-nitrothiazol-2-yl)acetamide] here?
The IC50 was 5.46 ± 0.38 µM.

For `O=C(CSc1nc2ccccc2c(=O)n1C1CCCC1)Nc1ncc([N+](=O)[O-])s1` [Compound 8n, 2-((3-cyclopentyl-4-oxo-3,4-dihydroquinazolin-2-yl)thio)-N-(5-nitrothiazol-2-yl)acetamide], which IC50 (urease [2]) is on record?
The IC50 was 2.96 ± 0.45 µM.

Which IC50 (urease [1]; thiazolbenzamide, Fig. 1F) does the source give for `Cc1cnc(NC(=O)CSc2nnc(-c3cccc([N+](=O)[O-])c3)o2)s1` [F] here?
The IC50 was 2.17 ± 0.41 µM.

What does the source list for `CC(=O)Oc1ccccc1C(=O)Nc1ncc([N+](=O)[O-])s1` [Nitazoxanide]?
MIC50 against H. pylori (H. pylori): 4 µg/mL (≈ 13 µM); MIC90 against H. pylori (H. pylori): 8 µg/mL (≈ 26 µM)

Which “IC50 (urease)” value (urease [1]; quinazolin-4(3H)-ones, Fig. 1C) does the source give for `NC(N)=S` [Thiourea, reference compound] here?
The value was 15.06 µg/mL (≈ 198 µM).

What about the IC50 (urease [2]; mean ± standard error of three independent experiments, read-out: IC50 (urease inhibitory activity)) of the same compound?
The IC50 was 22.5 ± 0.44 µM.

With `O=C(Nc1ncc([N+](=O)[O-])s1)c1ccccc1O` [Tizoxanide] as the compound, how does the “MIC50 against H. pylori” value (H. pylori) read?
The value was 4 µg/mL (≈ 15.1 µM).

What about the “MIC90 against H. pylori” value (H. pylori) of the same compound?
The value was 8 µg/mL (≈ 30.2 µM).
